The results in this text go back to US20230167058A1, “GPX4 COMPOUNDS AND COMPOSITIONS AND METHODS OF TREATMENT USING SAME” (THE TRUSTEES OF COLUMBIA UNIVERSITY IN THE CITY OF NEW YORK, priority 2020, published 2023).

Entries after “also recorded” stand apart in the source; their conditions may differ.

Series [1] deals with T1, GPX4 (Homo sapiens, UniProt P36969, U73C).
T1 sequence (P36969 33-197 U73C): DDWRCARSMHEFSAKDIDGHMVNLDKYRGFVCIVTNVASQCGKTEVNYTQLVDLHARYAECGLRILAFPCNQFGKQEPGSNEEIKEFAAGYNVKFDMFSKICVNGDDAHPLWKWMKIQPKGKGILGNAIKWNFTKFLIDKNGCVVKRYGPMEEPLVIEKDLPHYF
The series is described as follows: Microscale thermophoresis (MST) binding to GPX4. Conditions: Table 1. The source says: (§1) Therefore, we applied a strategy of computer-facilitated design, based on MD simulation (Desmond) and Glide docking (Schrödinger Suite), and experimental high-throughput screening of a lead-optimized compound library of 10,000 compounds (FIGS. 6A-6E). All candidates were first evaluated by thermal denaturation assay and microscale thermophoresis (MST) to validate binding to GPX4 (Table 1). Surface plasmon resonance (SPR) and isothermal titration calorimetry (ITC) were then applied to precisely measure their binding kinetics and affinities, while ^1H-^15N heteronuclear single-quantum coherence (HSQC) NMR spectroscopy informed us of binding sites. We optimized two GPX4-specific activity assays to examine enzymatic inhibitory effects of hit compounds—LC-MS-based substrate/product monitoring and an NADPH-coupled assay. […] Some L880 analogues were also synthesized and tested (Table 2).

Series [2] concerns the target T2, GPX4^U46C (Homo sapiens, UniProt P36969, U73C).
T2 construct: His6 (N, cleaved yes); made in house; host or cells: E. coli BL21-Gold (DE3), M9 minimal medium with 15NH4Cl
T2 sequence (P36969 33-197 U73C): T1 sequence (P36969 33-197 U73C)
In words: 1H,15N-HSQC-NMR of 15N-labeled GPX4^U46C. It counts as binding. How it is done:
Uniformly ^15N-labeled GPX4^U46C protein with N-terminal His6 tag was prepared. The GPX4^U46C construct was expressed in E. coli BL21-Gold (DE3) cells (Stratagene) growing at 37° C. in M9 minimal medium supplemented with […] ampicillin, 2 mM MgSO4, […] CaCl2, 1× trace metals, 1×RPMI 1640 vitamin stock (Sigma-Aldrich, #R7256), […] biotin, […] thiamine hydrochloride, 4 g/L glucose, and 3 g/L ^15NH4Cl as the sole nitrogen source. The following induction, lysis, and protein purification was the same as for the non-isotope-labeled His-tagged GPX4^U46C described above, except the N-terminal His6 tag was removed by adding 5 U/mg thrombin before FPLC purification. The thrombin reaction was after a buffer exchange to remove imidazole, which otherwise would inhibit thrombin, and was allowed to proceed overnight at 4° C.
Then the protein solution was concentrated to 50 μM before testing. For HSQC of GPX4 with other inhibitors, 50 μM ^15N-labeled GPX4 was preincubated with 800 μM inhibitor to be tested for […] at room temperature in buffer (100 mM MES, 5 mM TCEP, pH 6.5). D20 (10%) was then added for the field frequency lock. The ^1H-^15N HSQC spectra were collected on Bruker Avance III 500 Ascend (500 MHz) spectrometers (Columbia University) at 298K. The ^1H carrier frequency was positioned at the water resonance. The ^15N carrier frequency was positioned at 115 ppm. The spectral width in the ^1H dimension was 7,500 Hz and the width in the ^15N dimension was 1,824.6 Hz. Suppression of water signal was accomplished using the WATERGATE sequence. Heteronuclear decoupling was accomplished using GARP decoupling scheme.

In series [3] the target is T3, GPX4 (Homo sapiens, UniProt P36969).
T3 sequence (P36969 1-170 isoform P36969-2): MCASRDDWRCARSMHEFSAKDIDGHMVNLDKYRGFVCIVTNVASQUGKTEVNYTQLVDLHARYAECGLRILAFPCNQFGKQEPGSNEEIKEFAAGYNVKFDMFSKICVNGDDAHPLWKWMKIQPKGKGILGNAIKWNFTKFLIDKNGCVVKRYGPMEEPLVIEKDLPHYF
In words: GPX4-specific enzymatic activity assay (LC-MS substrate/product, NADPH-coupled). It counts as biochemical.
Description: as §1, with “These x-ray structures enabled further optimization of current inhibitors and the design of novel inhibitors targeting various binding sites on GPX4. Therefore,” for “Therefore,”

Series [4] has as its target T2, GPX4^U46C. The series is described as follows: Intact protein MALDI MS analysis, GPX4^U46C. To be noted: protein preincubated with excess inhibitor. It is filed as binding. How it is done: GPX4^U46C or GPX4^AllCys(−)-A46C protein was pre-incubated with DMSO control or the inhibitor to be tested prior to MALDI MS analysis: 50 μM GPX4 protein was incubated with 500 μM inhibitors in FPLC buffer (100 mM Tris pH 8.0, 300 mM NaCl, and 3 mM TCEP) with 5% DMSO at RT for 1 hour before transferring to 4° C. overnight.
1 μl of the ligand-free protein (pre-incubated with DMSO) or protein-inhibitor complex (pre-incubated with the inhibitor to be tested) was mixed with 9 μl of 10 mg/ml sinapinic acid in the matrix solution (70:30 water/acetonitrile, with 0.1% TFA). 1.0 μl of the final mix was deposited onto the target carrier and allowed to air dry. MALDI spectrum was recorded using Bruker ultrafleXtreme MALDI-TOF instrument. The range of m/z detection and suppression was adjusted to accommodate the molecular weight of target protein. 2000 Hz and 50% intensity was applied for the laser setting. For each sample, five cumulative spectra were collected and the sum was recorded for analysis. All MALDI spectra of protein-inhibitor complex were compared with ligand-free protein to determine the mass shift. Mass shifts were aligned with the mass of potential staying group of each inhibitor to conclude covalent binding.

The next series in a line: Aqueous solubility. It counts as physicochemical.

On to `COc1cccc2[nH]c(C(=O)n3ccnc3)cc12` [LOC1886], for which the MST result on GPX4 [1] is listed as “positive”. Further, on GPX4 [1] (read-out: MST Kd), the Kd was found to be 100 µM. Besides, on GPX4^U46C [2], the “binding mode by HSQC NMR” value is recorded as “non-covalently binds to the RSL3-binding site; also recorded: strongly interacted with the cys66 binding site”. For the same compound, at GPX4^U46C [2] (Table 1), the Binding site entry is given as “Allosteric Site 1” and the HSQC assay entry was “positive”. In addition, the GPX4 enzymatic assay result at GPX4 [3] was “suppression of its enzymatic activity; also recorded: positive”. For the same compound, on GPX4^U46C [4], the “covalent binding to GPX4^U46C by intact protein MALDI MS” value is reported as “covalently bound”.

As to `COC(=O)c1ccc([C@@H]2c3[nH]c4ccccc4c3C[C@@H](C(=O)OC)N2C(=O)CCl)cc1` [RSL3, (1S, 3R)-RSL3], the “binding mode by HSQC NMR” value at GPX4^U46C [2] is recorded as “global conformational change induced by binding of RSL3 to cys66”. Further, the “covalent binding to GPX4^U46C by intact protein MALDI MS” value at GPX4^U46C [4] is given as 1:1 covalent binding. For the same compound, the “solubility in aqueous solution” value in “Aqueous solubility” is given as “low”.
